This is an account of results in patent US8877763B2, “Substituted pyridopyrimidine compounds and their use as FLT3 inhibitors” (Genosco, priority 2012, dated 2014).

Assay [1] concerns the target T1, FLT3 mutant D835Y (Homo sapiens, UniProt P36888, D835Y).
T1 construct: Truncated human FLT3 wildtype, mutant D835Y; purchased Carna Biosciences
T1 sequence (P36888 564-993 D835Y limits assumed): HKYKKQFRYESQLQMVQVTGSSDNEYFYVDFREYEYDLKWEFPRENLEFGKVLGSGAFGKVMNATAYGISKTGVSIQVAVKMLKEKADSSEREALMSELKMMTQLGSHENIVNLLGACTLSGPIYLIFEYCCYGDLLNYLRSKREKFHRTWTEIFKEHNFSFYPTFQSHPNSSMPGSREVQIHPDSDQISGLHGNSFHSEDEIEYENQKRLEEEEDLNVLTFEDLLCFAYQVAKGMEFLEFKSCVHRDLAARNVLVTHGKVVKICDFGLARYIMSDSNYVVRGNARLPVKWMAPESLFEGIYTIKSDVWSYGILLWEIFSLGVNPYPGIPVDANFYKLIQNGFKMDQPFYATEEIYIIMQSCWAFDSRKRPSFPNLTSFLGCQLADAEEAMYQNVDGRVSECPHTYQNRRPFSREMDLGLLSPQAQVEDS
In words: Inhibition of enzymatic FLT3 mutant D835Y kinase activity (Lance Ulight TR-FRET). In kind it is biochemical. Here is the method:
(§1) Compounds of the invention were initially diluted to 10 mM in 100% DMSO (CALBIOCHEM™) for storage and made into kinase buffer solution to create a compound concentration ranging from 1 uM and 10 uM. Serial dilutions of compounds of the invention were dispensed into a 96-well plate (GREINER BIOSCIENCES™) at 6 μL each.
On the technique in general: TR-FRET usually uses a lanthanide donor and a delayed reading to cut background.

The target in assay [2] is T2, Truncated human FLT3 wildtype (Homo sapiens, UniProt P36888).
T2 construct: Truncated human FLT3 wildtype; purchased Carna Biosciences
T2 sequence (P36888 564-993 limits assumed): T1 sequence (P36888 564-993 D835Y limits assumed) with Y272D
In words: Inhibition of enzymatic FLT3 wildtype kinase activity (Lance Ulight TR-FRET). The format is biochemical. As to the method: as §1

Assay [3] concerns the target T3, JAK2 (Homo sapiens, UniProt O60674).
T3 construct: Truncated human FLT3 wildtype, mutant D835Y, and JAK2; purchased Carna Biosciences
In words: Inhibition of enzymatic JAK2 kinase activity (Lance Ulight TR-FRET). In kind it is biochemical. As to the method:
as §1

Assay [4] deals with MV4-11 cells expressing human FLT3-ITD. In words: Cell viability assay: inhibition of FLT3-ITD-positive cells (ATPLite). In kind it is cell-based. Particulars: 72 hour incubation. As to the method:
Compounds of the invention were tested for cell viability effect on MV4-11 cells. For cell viability assay, MV4-11 cells expressing human FLT3-ITD were obtained from the American Type Culture Collection (ATCC, Manassas, Va.). This cell line was maintained with an Roswell Park Memorial Institute (RPMI) medium (HyClone™) containing 10 bovine calf serum (BCS; Hyclone™) supplemented iron. The MV4-11 cells were seeded at 2×10^4 cells in 96-well culture plates, and serially diluted compound was then added. After a 72 hour incubation period at 37° C., cell viability was measured using the ATPLite 1 step assay (Perkin-Elmer™) that is based on the quantification of ATP from viable cells. CellTiter Aqueous assay (Promega™) was also performed in parallel as an orthogonal assay. IC50 values were calculated using nonlinear regression and defined as the concentration needed for a 50 reduction in luminescence or absorbance treated versus untreated control cells (Prism™ Software).
On the technique in general: ATP-based viability assays read luminescence as a measure of living cells.

In assay [5] the test system is MV4-11 cell line of FLT3-ITD. In words: Xenograft mouse model using MV4-11 cell line. The format is in vivo, Balb/C nude mice. The following applies: for Means of Tumor Volume / Percent Tumor Regression (PTR %): 30 mg/kg every day. Here is the method: Compounds of the invention were tested in xenograft mouse model using MV4-11 cell line of FLT3-ITD. All male animals of 6 weeks old Balb/C nude mice were housed in plastic cages (4˜6 mice/cage) containing corn cob and maintained in a pathogen-free facility (20˜25° C., 30˜70% humidity) with a 12 hour light:dark cycle. Tumor model was established by subcutaneous injection with MV4-11 cell suspension. When the average tumor volume reached approximately 400 mm^3 (˜5 weeks post tumor implantation), the tumor bearing-mice were assigned 2 groups (9 mice per each). The compound 238 treatment of 30 mg/kg every day was initiated and continue for 28 days. The vehicle 20% hydroxyl-β-cyclodextrin was used. Tumor volume was measured twice weekly. Where applicable, percent tumor regression (PTR) for each group will be calculated by the formula: PTR=100×(tumor volumeinitial−tumor volumefinal)/(tumor volumeinitial).

Each structure is given as a SMILES string. Residue numbers refer to the chain shown, from its start. Counter-ions that a name gives are not always drawn.

T3 sequence (O60674 826-1132 limits assumed): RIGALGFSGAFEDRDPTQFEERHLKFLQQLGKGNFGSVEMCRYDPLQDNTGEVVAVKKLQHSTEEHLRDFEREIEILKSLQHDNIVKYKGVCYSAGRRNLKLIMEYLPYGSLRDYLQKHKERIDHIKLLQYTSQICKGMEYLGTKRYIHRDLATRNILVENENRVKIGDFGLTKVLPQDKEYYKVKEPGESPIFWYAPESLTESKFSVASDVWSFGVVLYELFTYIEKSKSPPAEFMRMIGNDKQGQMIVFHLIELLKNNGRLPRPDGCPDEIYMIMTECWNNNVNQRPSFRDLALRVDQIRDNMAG

As a reminder, the IC50 is the point on the concentration scale where inhibition reaches its midpoint. Lower therefore signals higher potency. In the case of `CN1CCC(Nc2nc(Nc3ccc(OC4CCCC4)cc3)c3c(=O)[nH]cc(Br)c3n2)CC1` [Compound 223, 8-bromo-4-((4-(cyclopentyloxy)phenyl)amino)-2-((1-methylpiperidin-4-yl)amino)pyrido[4,3-d]pyrimidin-5(6H)-one], the IC50 in assay [1] stood at 0.3 nM; in assay [2], 0.6 nM; in assay [3], 153 nM.
Take `CN1CCC(Nc2nc(Nc3ccc(OC4CCCCC4)cc3)c3c(=O)[nH]cc(Br)c3n2)CC1` [Compound 228, 8-bromo-4-((4-(cyclohexyloxy)phenyl)amino)-2-((1-methylpiperidin-4-yl)amino)pyrido[4,3-d]pyrimidin-5(6H)-one]: the 50% inhibitory concentration (IC50) in assay [1] stood at 0.6 nM; in assay [4], 0.8 nM; in assay [2] it was 0.1 nM; in assay [3] it was 129 nM.
With `CN1CCC(Nc2nc(Nc3ccc(OC4CCCC4)cc3)c3c(=O)[nH]cc(Br)c3n2)CC1` [Compound 237, 8-bromo-4-(4-(cyclopentyloxy)phenylamino)-2-(1-methylpiperidin-4-ylamino)pyrido[4,3-d]pyrimidin-5(6H)-one hydrochloride], the concentration for half-maximal inhibition (IC50) in assay [4] (Homo sapiens, MV4-11, 72 h) worked out at 0.5 nM.
As to `CN1CCC(Nc2nc(Nc3ccc(Oc4cccc(F)c4)cc3)c3c(=O)[nH]cc(Br)c3n2)CC1` [Compound 240, 8-bromo-4-((4-(3-fluorophenoxy)phenyl)amino)-2-((1-methylpiperidin-4-yl)amino) pyrido[4,3-d]pyrimidin-5(6H)-one], the IC50 worked out at 1.3 nM in assay [1], 0.5 nM in assay [4], 1.2 nM in assay [2] and 599 nM in assay [3].
Take `CN1CCC(Nc2nc(Nc3ccc(OCC4CCCC4)cc3)c3c(=O)[nH]cc(Br)c3n2)CC1` [Compound 235, 8-bromo-4-((4-(cyclopentylmethoxy)phenyl)amino)-2-((1-methylpiperidin-4-yl)amino)pyrido[4,3-d]pyrimidin-5(6H)-one]: half-maximal inhibition in assay [4] (Homo sapiens, MV4-11, 72 h) (IC50) was put at 1.6 nM.
Turning to `CN1CCC(Nc2nc(Nc3ccc(OC4CCCCC4)cc3)c3c(=O)[nH]cc(Br)c3n2)CC1` [Compound 233, 8-bromo-4-((4-(cyclohexyloxy)phenyl)amino)-2-((1-methylpiperidin-4-yl)amino) pyrido[4,3-d]pyrimidin-5(6H)-one hydrochloride], the 50% inhibitory concentration (IC50) is 0.3 nM in assay [1]; 1.4 nM in assay [4] (Homo sapiens, MV4-11, 72 h); 173 nM in assay [3].
Regarding `CN1CCC(Nc2nc(Nc3ccc(Oc4cccc(F)c4)cc3)c3c(=O)[nH]cc(Br)c3n2)CC1.Cl` [Compound 238, 8-bromo-4-(4-(3-fluorophenoxy)phenylamino)-2-(1-methylpiperidin-4-ylamino)pyrido[4,3-d]pyrimidin-5(6H)-one hydrochloride], the “Means of Tumor Volume” value is reported as 312.8 mm^3 in assay [5] (day of treatment 1); 79.4 mm^3 in assay [5] (day of treatment 4); 27.6 mm^3 in assay [5] (day of treatment 7); 0 mm^3 in assay [5] (day of treatment 11); 0 mm^3 in assay [5] (day of treatment 14); 0 mm^3 in assay [5] (day of treatment 17). Also, the “Means of Tumor Volume” value in assay [5] (day of treatment 21), in assay [5] (day of treatment 25) and in assay [5] (day of treatment 28) was 0 mm^3 throughout. In addition, the “Percent Tumor Regression (PTR %)” value in assay [5] (day of treatment 4) was found to be 74.6%; in assay [5] (day of treatment 7), 91.2%; in assay [5] (day of treatment 11), 100%; in assay [5] (day of treatment 14), 100%; in assay [5] (day of treatment 17) it was 100%; in assay [5] (day of treatment 21), 100%. Further, the “Percent Tumor Regression (PTR %)” value in assay [5] (day of treatment 25) and in assay [5] (day of treatment 28) was 100% throughout. Also, the “tumor regression (in words)” value in assay [5] (after 11 days of compound treatment) is on record as “complete tumor regression”. Further, the IC50 in assay [1] worked out at 0.4 nM; in assay [4] (hydrochloride), 1.9 nM; in assay [2] it was 1.4 nM; in assay [3], 845 nM. For the same molecule, the “inhibition of kinase activity of FLT3 mutant D835Y (in words)” value in assay [1] is “strong inhibition”. Also, the “inhibition of kinase activity of FLT3 wildtype (in words)” value in assay [2] is “strong inhibition”.
Regarding `CN1CCC(Nc2nc(Nc3ccc(Oc4ccc(F)c(F)c4)cc3)c3c(=O)[nH]cc(Br)c3n2)CC1` [Compound 241, 8-bromo-4-((4-(3,4-difluorophenoxy)phenyl)amino)-2-((1-methylpiperidin-4-yl)amino)pyrido[4,3-d]pyrimidin-5(6H)-one hydrochloride], the IC50 in assay [1] came to 0.6 nM; in assay [4] (Homo sapiens, MV4-11, 72 h), 0.9 nM; in assay [2], 1.6 nM; in assay [3] it was 1050 nM.
`Cc1ccc(Oc2ccc(Nc3nc(NC4CCN(C)CC4)nc4c(Br)c[nH]c(=O)c34)cc2)cc1` [Compound 225, 8-bromo-2-((1-methylpiperidin-4-yl)amino)-4-((4-(p-tolyloxy)phenyl)amino)pyrido[4,3-d]pyrimidin-5(6H)-one]: the IC50 in assay [1] was determined as 1.6 nM; in assay [2], 0.3 nM; in assay [3], 1520 nM.
For `CN1CCC(Nc2nc(Nc3cccc(Oc4ccccc4)c3)c3c(=O)[nH]cc(Br)c3n2)CC1` [Compound 246, 8-bromo-2-((1-methylpiperidin-4-yl)amino)-4-((3-phenoxyphenyl)amino)pyrido[4,3-d]pyrimidin-5(6H)-one], the IC50 in assay [1] stood at 1.7 nM; in assay [4] (Homo sapiens, MV4-11, 72 h), 1.4 nM; in assay [2], 0.1 nM; in assay [3], 260 nM.
`CN1CCC(Nc2nc(Nc3ccc(Oc4ccccc4)cc3)c3c(=O)[nH]cc(Br)c3n2)CC1` [Compound 226, 8-Bromo-2-(1-methylpiperidin-4-ylamino)-4-(4-phenoxyphenylamino)pyrido[4,3-d]pyrimidin-5(6H)-one hydrochloride] came in with an IC50 in assay [3] of 281 nM.
For the molecule `CN1CCC(Nc2nc(Nc3ccc(OCc4ccccc4)cc3)c3c(=O)[nH]cc(Br)c3n2)CC1` [Compound 221, 4-((4-(benzyloxy)phenyl)amino)-8-bromo-2-((1-methylpiperidin-4-yl)amino)pyrido[4,3-d]pyrimidin-5(6H)-one], the half-inhibitory concentration (IC50) in assay [1] came out at 0.4 nM; in assay [4] (Homo sapiens, MV4-11, 72 h), 2.4 nM; in assay [2], 0.1 nM; in assay [3] it was 290 nM.
